Experimental findings from patent US10172947B2, “Antiparasitic and/or antifungal composition comprising hydrophobised chitosan” (CENTRE NATIONAL DE LA RECHERCHE SCIENTIFIQUE (CNRS), priority 2013, dated 2019) are described below.

SMILES strings stand for the structures. Values after ≈ are worked out from the molar mass of the structure shown.

Common to all, as to type: cell-based
In one test the test system is Trichomonas vaginalis. Description: Anti Trichomonas vaginalis activity, parasite count after 24 h. As to conditions: reference product, MTZ-sensitive strain ATCC PRA-98. As to the method: Trichomonas vaginalis is axenically cultivated at 35° C. in a trypticase-yeast extract-maltose medium (TYM) (Diamond L. S. et al., J. Parasitol., 1957, 43(4), 488-490) enriched with 10% of decomplemented horse serum (Gibco, France); the strain is subcultured every other day (Camuzat-Dedenis B. et al., Eur. J. Med. Chem., 2001, 36(10), 837-842).
The tubes of culture containing the fresh TYM medium enriched with 10% of horse serum alone (control 1, noted as C1) or those with the compositions tested, are inoculated with the parasite at a rate of 2×10^5 protozoa in 3 mL. The compositions tested are the compositions of PIBCA-[chitosan20/chitosan20-TBA] that have different proportions of chitosan and of thiolated chitosan, namely 100/0, 75/25, 50/50 and 25/75 m/m %. The concentrations in nanoparticles studied are 12.5, 25, 50 and 100 μg/mL.
The results are compared between (i) the nanoparticles of PIBCA/F68; (ii) the solutions comprised of mixtures of PIBCA-[chitosan20/chitosan20-TBA] having different proportions of chitosan and thiolated chitosan, namely 100/0, 75/25, 50/50 and 25/75 m/m %, (iii) the polymerisation medium (control 2, noted as C2). […]
The tubes are incubated for 24 h at 35° C. and the number of parasites per milliliter in each tube is determined microscopically with a haemocytometer (Kova® Glasstic® Slide 10, Hycor Biomedical, United States). […]

Test [1] has as its system Leishmania braziliensis axenic amastigotes. Description: In vitro evaluation on axenic amastigotes (resazurin). Particulars: 72 h. The method, then:
(§1) The compositions 5a (PIBCA-[chitosan20/chitosan20-TBA] 100/0 m/m %) and 4 (MC3+α-cyclodextrin 1/10% m/v), described in point 3 hereinabove, have been tested in vitro on three strains of Leishmania: Leishmania major (MHOM/SU/73/5-ASKH/LEM134), Leishmania tropica (LRC-L39/LEM2563), Leishmania braziliensis (MHOM/BR/75/M2903b). The IC50 were measured then compared to the reference product amphotericin B in order to determine the anti-leishmanial activity of the nanoparticles.
(§2) The culture of the axenic amastigotes was carried out at 37° C. in a complete M199 medium supplemented with 200 μM CaCl2 and 200 μM MgCl2.
(§3) Axenic amastigotes were induced by incubating promastigotes in complete M199 medium supplemented with 200 μM of CaCl2 and 200 μM MgCl2 at 37° C. with 5% CO2 for 48 h. Serial two-fold dilutions of the compositions were then carried out in 100 μl of the same medium in 96-well plates. The axenic amastigotes were then added in each well at 10^6/ml in 200 μl of final. volume After 72 h of incubation at 37° C. with 5% CO2, 20 μl of resazurin at 450 μM were added in each well, then incubated in the dark for 24 h at 37° C. with 5% CO2. In living cells, resazurin is reduced in resofurin. This conversion is monitored by measuring the absorbance at specific wavelengths of the resofurin (570 nm) and of the resazurin (600 nm) by using a microplate reader (Labsystem Multisken MS). The activity of the compositions is expressed in IC50. Amphotericin B is used as a reference product.

Test [2] concerns Leishmania major axenic amastigotes. Described as above. Particulars: 72 h. The method, then: as §1, §2, §3
Test [3] concerns Leishmania tropica axenic amastigotes. The description is as above. Particulars: 72 h. As to the method:
as §1, §2, §3

The test system of test [4] is Leishmania braziliensis intramacrophagic amastigotes. Description: In vitro evaluation on intramacrophagic amastigotes (RAW 264.7, Sybr Green). Particulars: 48 h of treatment. The method, then:
as §1
(§4) The macrophages RAW 264.7 were maintained at 37° C. with 5% CO2 in DMEM medium (Dulbecco's modified Eagle's medium, Gibco, Saint-Aubin, France) supplemented with 10% of foetal calf serum, inactivated by heat (Invitrogen, Saint-Aubin, France), also called complete DMEM medium.
(§5) The evaluation of the compositions 5a and 4 on intramacrophagic amastigotes was conducted as previously described (Audisio et al., Eur. J. Med. Chem., 2012, 52, 44-50). The macrophages RAW 264.7 were added in the wells of 96-well plates at a rate of 2×10^4 cells per well and incubated for 24 h at 37° C. with 5% CO2. The axenic amastigotes were then induced as described hereinabove, centrifuged at 2000 g for 10 minutes, then resuspended in a complete DMEM medium, and added to each well at a rate of 3.2×10^5 parasites per well, in order to reach a parasite/macrophage ratio of 16:1. After 24 h of infection at 37° C. with 5% CO2, the extracellular parasites were removed and 100 μl of complete DMEM medium containing the seried dilutions of the compositions were added to each well. After 48 h of treatment, the culture medium is removed, then replaced with 100 μl of DirectPCR Lysis reagent (Euromedex, Souffelweyersheim, France), and three freezing-thawing cycles at ambient temperature are then carried out, then 50 μg/ml of proteinase K are added, and a final incubation at 55° C. for 4 hours is carried out in order to allow for the complete lysis of the cells. […] The fluorescence of the DNA was measured using the Mastercycler® realplex (Eppendorf, Montesson, France). […]

For test [5], the system named is Leishmania major intramacrophagic amastigotes. The test is described as above. Particulars: 48 h of treatment. As to the method: as §1, §4, §5
Test [6] has as its system Leishmania tropica intramacrophagic amastigotes. The test is described as above. Particulars: 48 h of treatment. The method, then:
as §1, §4, §5

In test [7] the test system is Leishmania braziliensis promastigotes. Description: In vitro evaluation on promastigotes (MTT). Particulars: 72 h. As to the method:
as §1
(§6) The promastigote culture was carried out at 26° C. in M199 medium (Sigma, Saint-Quentin Fallavier, France) supplemented with 4.2 mM NaHCO3, 10% of foetal calf serum inactivated by heat (Invitrogen, Saint-Aubin, France), 40 mM Hepes pH 7.5, 100 μM adenosine and 20 μM haemin (complete M199 medium).
(§7) The test of the compositions on prosmatigotes was conducted as previously described (Saint-Pierre-Chazalet et al., J. Antimicrob. Chemother., 2009, 64, 993-1001). Series of dilutions were carried out in 100 μl of complete M199 medium in a 96-well plate. Promastigotes in exponential growth were then added to each well at a rate of 10^6/ml in a final volume of 200 μl. After 72 h of incubation at 26° C., the viability of the promastigotes was measured by using 250 μg/ml of MTT, or 3-(4,5-dimethylthiazol-2-yl)-2,5-diphenyl tetrazolium bromide (Sigma, Saint-Quentin Fallavier, France), which is reduced in formazan, an insoluble product, by the active mitochondria of the living cells. After 4 h of incubation at 26° C., the formazan is then solubilised by adding 100 μl of isopropanol containing 40 mM of HCl in each well, then incubating for 15 minutes under stirring. The viability of the cells was then quantified by measuring the absorbance at 570 nm using a plate reader (Labsystems Multiskan MS). The activity of the compositions is expressed in IC50. Amphotericin B is used as a reference product.

The test system of test [8] is Leishmania major promastigotes. Description: In vitro evaluation on promastigotes (MTT). As to conditions: 72 h. The method, then:
as §1, §6, §7

Test [9] concerns Leishmania tropica promastigotes. Description: In vitro evaluation on promastigotes (MTT). As to conditions: 72 h. The method, then:
as §1, §6, §7

In a further test the test system is Candida albicans. Description: Activity against Candida albicans, IC50 by microdilution with MTT viability test. As to conditions: 24 h at 35° C., molecule alone. The method, then:
The inoculum is prepared by sampling 5 colonies obtained after 24 h of culture on Sabouraud agar medium, each one of at least 1 mm in diameter, and by putting them in suspension in 5 mL of sterile NaCl (0.85%). The turbidity of each suspension is evaluated by measuring the optical density at a wavelength of 530 nm then adjusted with a sterile isotonic solution so as to obtain an absorbance equivalent to that obtained with the turbidimetric standard (Mac Farland 0.5).
This protocol leads to the obtaining of a suspension of which the concentration is between 1×10^6 and 5×10^6 CFU/mL. […]
Measuring the growth of yeasts is carried out by a standard colorimetric technique that makes use of tetrazolium salt MTT (5 mg/mL) (3-(4,5-dimethylthiazol-2-yl)-2,5-diphenyl tetrazolium bromide) with menadione (vitamin K). […] The quantity of precipitate formed is proportional to the quantity of living cells and to the metabolic activity of each cell. It is sufficient therefore after the incubation of the cells with MTT for 1 h at 37° C., to add an agent solubilising the crystals of formazan, to centrifuge the 96-well plates, and to read the optical density of the supernatant. A simple dosage of the optical density at 570 nm by spectroscopy makes it possible to know the relative quantity of living cells. […]
(In general: In broth dilution the organism is exposed to a series of concentrations in liquid medium.)

Consider `Cc1ncc([N+](=O)[O-])n1CCO` [MTZ, metronidazole], for which the “lethal concentration against Trichomonas vaginalis” value with Trichomonas vaginalis was determined as 7 µg/mL.
For `C[C@@H]1[C@H](O)[C@@H](C)/C=C/C=C/C=C/C=C/C=C/C=C/C=C/[C@H](O[C@@H]2O[C@H](C)[C@@H](O)[C@H](N)[C@@H]2O)C[C@@H]2O[C@](O)(C[C@@H](O)C[C@@H](O)[C@H](O)CC[C@@H](O)C[C@@H](O)CC(=O)O[C@H]1C)C[C@H](O)[C@H]2C(=O)O` [Amphotericin B-DOC, Amphotericin B], the “IC50 (ng/μl) ± SEM” value in [1] was 0.055 ± 0.014 ng/µL (≈ 0.0595 µM); in test [2], 0.038 ± 0.002 ng/µL (≈ 0.0411 µM); in [3], 0.049 ± 0.01 ng/µL (≈ 0.053 µM); in [4], 0.29 ± 0.09 ng/µL (≈ 0.314 µM); in test [5] it was 0.49 ± 0.13 ng/µL (≈ 0.53 µM); in test [6], 0.51 ± 0.07 ng/µL (≈ 0.552 µM). In addition, the “IC50 (ng/μl) ± SEM” value in [7] stood at 0.022 ± 0.005 ng/µL (≈ 0.0238 µM); in test [8] it was 0.015 ± 0.004 ng/µL (≈ 0.0162 µM); in [9] it was 0.023 ± 0.002 ng/µL (≈ 0.0249 µM).
In the case of `N=C(NCCCCCCNC(=N)NC(=N)Nc1ccc(Cl)cc1)NC(=N)Nc1ccc(Cl)cc1.O=C(O)[C@H](O)[C@@H](O)[C@H](O)[C@H](O)CO.O=C(O)[C@H](O)[C@@H](O)[C@H](O)[C@H](O)CO` [chlorhexidine digluconate], the “IC50 against Candida albicans” value in the test with Candida albicans is on record as 0.00068%.
